Paper PMC7203344, “Sirtuin 1 Inhibiting Thiocyanates (S1th)—A New Class of Isotype Selective Inhibitors of NAD^+ Dependent Lysine Deacetylases” (Frontiers in Oncology, 2020)

Legend:
[1] = system: MCF7 cells; experiment: Cell proliferation assay with MCF7 cells; assay type: cell-based, human; conditions: concentrations as for HeLa
Protocol: (§1) 1.5 × 10^4 cells/well were seeded in 24-well plates and grown in DMEM 10% in presence of DMSO, 20 μM EX-527, 12 μM S1th 13, 20 μM S1th 12, or 30 μM S1th 10. The growth media containing the drugs was replaced every 48 h. Cells were collected and counted at the indicated times starting 24 h after seeding (0, 24, 48, 72, 96, and 120 h). The experiment was performed twice in duplicates.

[2] = system: HeLa cells; experiment: Cell proliferation assay with HeLa cells; assay type: cell-based, human; conditions: EX-527 20 μM, S1th 13 12 μM, S1th 12 20 μM, S1th 10 30 μM; up to 120 h
Protocol: as §1

[3] = system: HeLa cells; experiment: Colony forming assay with HeLa cells; assay type: cell-based, human; conditions: 7–10 days; concentrations as in proliferation assay
Protocol: For colony assays, 50 cells per well were seeded in 6-well plates and grown in the same conditions with the same drug concentrations as for the proliferation assays. In this case, the growth media containing the drugs was replaced every 48 h. After 7–10 days, when isolated colonies were formed, wells were washed with PBS, and cells were fixed with cold methanol for 5 min at RT. Cells were stained with crystal violet for 10 min at RT and washed with H2O. Images were acquired using iBright (Thermo Fisher Scientific, MA, USA). For quantification, cells of each well were resuspended in 10% glacial acetic acid to dissolve crystal violet whose levels were monitored by measuring absorbance at 590 nm. The experiment was performed in duplicates.

[4] = Solubility as found in testing; assay type: physicochemical; conditions: compared with earlier hits such as S1th 7

Compound	cell proliferation of MCF7 cells [1]	cell proliferation of HeLa cells [2]	colony forming of HeLa cells [3]	solubility (in words) [4]
N#CSc1cccc(NC(=O)[C@H]2CC=CC[C@H]2C(=O)O)c1 [S1th 10]	most effective	significantly decreased cell proliferation	only mild effects	–
CCCCNC(=O)Nc1cccc(SC#N)c1 [S1th 11]	–	–	–	better soluble
COc1ccc(SC#N)cc1OCC(=O)N(CCC#N)CCC#N [S1th 12]	only have a mild effect	only showed a mild effect	only mild effects	better soluble
N#CSc1cccc(NS(=O)(=O)c2ccc3c(c2)OCCO3)c1 [S1th 13]	most effective	significantly decreased cell proliferation	almost as potent as EX-527	better soluble
